Assay results from patent US7045532B2 (Millennium Pharmaceuticals, Inc., priority 1999, dated 2006).
Read-outs that look alike come from different tables or passages of the source.

Key:
ACE-2 [1] = target: T1, ACE-2 (Homo sapiens, UniProt Q9BYF1); test: ACE-2 Competitive Substrate Assay (ACS Assay); format: biochemical
T1 construct: a stop codon inserted after the serine immediately preceding the transmembrane domain; made in house; host or cells: CHO K1 cells (transient transfection, purified from conditioned medium)

ACE-2 [2] = target: ACE-2 (Rattus norvegicus, UniProt Q5EGZ1); test: ACE-2 Competitive Substrate Assay, rat ACE-2; format: biochemical; conditions: Ki class, compounds tested in 5% DMSO
ACE (Sigma, A2580) = target: T2, ACE (Sigma, A2580) (Sus scrofa, UniProt F1RRW5); test: ACE enzymatic activity assay; format: biochemical, porcine; conditions: Ki class, compounds tested in 5% DMSO
T2 construct: ACE from porcine kidney; purchased Sigma A2580; host or cells: porcine kidney
T2 sequence (F1RRW5 34-1309): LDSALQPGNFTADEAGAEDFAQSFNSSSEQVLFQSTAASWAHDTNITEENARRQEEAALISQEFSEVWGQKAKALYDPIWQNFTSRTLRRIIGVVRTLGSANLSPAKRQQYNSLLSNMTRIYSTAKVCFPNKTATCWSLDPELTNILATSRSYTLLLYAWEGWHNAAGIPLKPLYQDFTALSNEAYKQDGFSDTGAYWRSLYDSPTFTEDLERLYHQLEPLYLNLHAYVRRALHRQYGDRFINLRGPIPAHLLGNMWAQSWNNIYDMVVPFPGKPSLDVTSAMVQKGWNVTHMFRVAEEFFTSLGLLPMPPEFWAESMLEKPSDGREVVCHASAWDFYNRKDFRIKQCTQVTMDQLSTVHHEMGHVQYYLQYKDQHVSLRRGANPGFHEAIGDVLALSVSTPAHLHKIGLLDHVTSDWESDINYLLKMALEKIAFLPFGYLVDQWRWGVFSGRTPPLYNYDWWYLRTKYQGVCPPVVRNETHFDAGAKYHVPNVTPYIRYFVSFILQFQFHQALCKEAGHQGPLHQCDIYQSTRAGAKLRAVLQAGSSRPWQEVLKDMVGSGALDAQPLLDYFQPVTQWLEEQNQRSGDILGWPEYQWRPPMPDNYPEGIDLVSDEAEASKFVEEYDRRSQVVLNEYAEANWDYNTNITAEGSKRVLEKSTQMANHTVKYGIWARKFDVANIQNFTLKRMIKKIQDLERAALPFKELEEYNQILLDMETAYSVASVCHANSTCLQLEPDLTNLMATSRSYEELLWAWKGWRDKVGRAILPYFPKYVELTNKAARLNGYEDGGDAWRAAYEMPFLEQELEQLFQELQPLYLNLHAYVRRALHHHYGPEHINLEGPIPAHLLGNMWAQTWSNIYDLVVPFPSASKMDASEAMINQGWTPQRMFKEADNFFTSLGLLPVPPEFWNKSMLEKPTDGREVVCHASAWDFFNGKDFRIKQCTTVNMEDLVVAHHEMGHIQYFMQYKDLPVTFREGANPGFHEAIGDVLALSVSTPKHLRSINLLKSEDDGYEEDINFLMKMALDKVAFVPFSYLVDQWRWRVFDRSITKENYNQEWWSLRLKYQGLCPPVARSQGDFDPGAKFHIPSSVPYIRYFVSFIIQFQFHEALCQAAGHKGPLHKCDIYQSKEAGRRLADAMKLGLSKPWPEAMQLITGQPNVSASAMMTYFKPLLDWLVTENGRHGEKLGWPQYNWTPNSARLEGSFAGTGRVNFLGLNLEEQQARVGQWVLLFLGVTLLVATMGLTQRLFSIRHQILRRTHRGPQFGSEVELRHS
Summary of the method: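 Fluorogenic substrate cleavage by 1 nM ACE, read at 320/405 nm after EDTA stop at ~30 min. Reactions at 25 °C, pH 7.5, in HEPES/NaCl/Brij-35 buffer; compounds tested at 12 concentrations in 5% DMSO.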

Carboxypeptidase A = target: T3, Carboxypeptidase A (Bos taurus, UniProt P00730); test: Carboxypeptidase A activity assay; format: biochemical; conditions: Ki class, compounds tested in 5% DMSO
T3 sequence (P00730 111-419): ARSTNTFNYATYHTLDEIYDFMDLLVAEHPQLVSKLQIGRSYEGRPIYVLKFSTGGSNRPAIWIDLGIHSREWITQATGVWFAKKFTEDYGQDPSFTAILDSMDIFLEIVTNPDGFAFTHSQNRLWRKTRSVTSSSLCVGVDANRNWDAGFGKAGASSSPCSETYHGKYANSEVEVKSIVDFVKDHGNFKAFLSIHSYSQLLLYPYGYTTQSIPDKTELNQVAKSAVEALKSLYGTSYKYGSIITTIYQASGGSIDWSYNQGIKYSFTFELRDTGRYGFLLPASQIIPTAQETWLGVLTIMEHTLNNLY
Summary of the method: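 Ki obtained by correcting apparent Ki for substrate, Ki=Kiapp/(1+[S]/Km), from 12-concentration series. Enzyme activity read by absorbance at 328 nm with 5% DMSO present, EDTA stop.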

[3] = Ki class, compounds tested in 5% DMSO, 12 compound concentrations, Ki=Kiapp/(1+[S]/Km), read-out: Human ACE-2 Activity
[4] = Table 3, very good ACE-2 inhibiting compounds, species not given, read-out: ACE-2 Activity, Ki
[5] = Ki class, compounds tested in 5% DMSO, 12 concentrations, read-out: Human ACE-2 Activity

T1 sequence (Q9BYF1 18-740 limits assumed): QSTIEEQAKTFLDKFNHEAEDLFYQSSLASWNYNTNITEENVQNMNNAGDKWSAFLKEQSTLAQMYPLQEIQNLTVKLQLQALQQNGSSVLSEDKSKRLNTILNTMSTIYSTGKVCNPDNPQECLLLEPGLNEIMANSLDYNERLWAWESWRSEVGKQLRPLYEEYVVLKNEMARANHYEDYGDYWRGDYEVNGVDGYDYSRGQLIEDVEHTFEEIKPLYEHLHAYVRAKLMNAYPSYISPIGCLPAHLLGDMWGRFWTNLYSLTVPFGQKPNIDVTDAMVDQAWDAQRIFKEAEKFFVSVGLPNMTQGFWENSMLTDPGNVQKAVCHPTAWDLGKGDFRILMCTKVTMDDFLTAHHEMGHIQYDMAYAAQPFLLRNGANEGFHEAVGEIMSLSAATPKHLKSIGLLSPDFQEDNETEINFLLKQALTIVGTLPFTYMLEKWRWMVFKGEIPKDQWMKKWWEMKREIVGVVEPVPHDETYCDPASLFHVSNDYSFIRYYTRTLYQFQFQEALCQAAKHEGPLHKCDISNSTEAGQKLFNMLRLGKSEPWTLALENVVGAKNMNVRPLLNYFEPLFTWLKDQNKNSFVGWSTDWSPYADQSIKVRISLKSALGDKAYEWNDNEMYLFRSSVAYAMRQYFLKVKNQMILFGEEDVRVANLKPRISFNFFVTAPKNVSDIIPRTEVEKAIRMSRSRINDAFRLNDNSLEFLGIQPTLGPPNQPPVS
Sequence of ACE-2 (Rattus norvegicus, UniProt Q5EGZ1) (Q5EGZ1 18-805): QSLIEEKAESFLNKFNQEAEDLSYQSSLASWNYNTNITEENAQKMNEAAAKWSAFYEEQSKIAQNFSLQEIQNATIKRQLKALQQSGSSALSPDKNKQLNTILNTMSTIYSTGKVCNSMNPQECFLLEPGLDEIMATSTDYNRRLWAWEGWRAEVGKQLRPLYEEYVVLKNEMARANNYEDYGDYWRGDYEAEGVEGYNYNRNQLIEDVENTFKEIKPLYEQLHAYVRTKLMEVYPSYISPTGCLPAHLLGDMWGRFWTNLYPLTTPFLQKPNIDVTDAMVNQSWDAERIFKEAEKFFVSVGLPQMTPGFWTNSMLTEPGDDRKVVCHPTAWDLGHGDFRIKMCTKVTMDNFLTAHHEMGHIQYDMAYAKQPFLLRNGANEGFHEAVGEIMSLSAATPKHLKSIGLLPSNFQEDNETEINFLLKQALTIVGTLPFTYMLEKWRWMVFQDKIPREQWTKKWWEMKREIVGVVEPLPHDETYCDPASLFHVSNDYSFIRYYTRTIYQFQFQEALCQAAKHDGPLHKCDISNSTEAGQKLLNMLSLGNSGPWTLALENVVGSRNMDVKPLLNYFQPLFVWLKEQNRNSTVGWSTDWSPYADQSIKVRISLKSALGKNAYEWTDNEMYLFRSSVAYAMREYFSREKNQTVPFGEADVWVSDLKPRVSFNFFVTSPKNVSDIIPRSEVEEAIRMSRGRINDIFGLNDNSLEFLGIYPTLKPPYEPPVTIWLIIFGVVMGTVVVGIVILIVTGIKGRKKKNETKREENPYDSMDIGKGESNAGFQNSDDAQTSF

Ki (ACE-2 [1]; [3]) [nM] | Ki (ACE-2 [2]; 12 compound concentrations) [nM] | Ki (ACE-2 [1]; [4]) [nM] | Ki (ACE-2 [2]; 12 concentrations) [nM] | Ki (ACE (Sigma, A2580); 12 concentrations) [nM] | Ki (Carboxypeptidase A; 12 concentrations) [nM] | Structure (SMILES) | other results
< 100 | < 100 | – | – | – | – | CC(C)CC(N[C@@H](Cc1cncn1CCc1ccccc1)C(=O)O)C(=O)O (single isomer, unassigned) [JK, 2-[1-Carboxy-2-[3-phenethyl-3H-imidazol-4-yl)-ethylamino]-4-methyl-pentanoic acid] | –
– | – | – | > 500 | > 50000 | > 50000 | CC(C)CC(N[C@@H](Cc1cncn1COCc1ccccc1)C(N)=O)C(=O)O (single isomer, unassigned) [FC, 2-[2-(3-Benzyloxymethyl-3H-imidazol-4-yl)-1-carbamoyl-ethylamino]-4-methyl-pentanoic acid] | –
– | – | – | > 500 | > 50000 | > 50000 | CCC(C)C(NC(Cc1cncn1Cc1ccccc1)C(=O)O)C(=O)O (single isomer, unassigned) [GD, 2-[2-(3-Benzyl-3H-imidazol-4-yl)-1-carboxy-ethylamino]-3-methyl-pentanoic acid] | –
100 to 500 | < 100 | – | – | – | – | CC(C)C[C@H](N[C@@H](Cc1ccn(Cc2ccccc2)n1)C(=O)O)C(=O)O [IN, (S,S)-2-[2-(1-benzyl-1H-pyrazol-3-yl)-1-carboxy-ethylamino]-4-methyl pentanoic acid] | –
< 100 | < 100 | < 50 | – | – | – | CC(C)CC(N[C@@H](Cc1cncn1Cc1cccc(C(F)(F)F)c1)C(=O)O)C(=O)O (single isomer, unassigned) [IZ, 2-[1-Carboxy-2-[3-(3-trifluoromethyl-benzyl)-3H-imidazol-4-yl]-ethylamino]4-methyl-pentanoic acid] | –
< 100 | < 100 | 50 to 100 | – | – | – | CC(C)CC(N[C@@H](Cc1cncn1Cc1ccc(F)cc1)C(=O)O)C(=O)O (single isomer, unassigned) [II, 2-[1-Carboxy-2-[3-(4-fluoro-benzyl)-3H-imidazol-4-yl]-ethylamino]4-methyl-pentanoic acid] | –
– | – | – | > 500 | > 50000 | > 50000 | CCCCC(N[C@@H](Cc1cncn1Cc1ccccc1)C(=O)O)C(=O)O (single isomer, unassigned) [FZ, 2-[2-(3-Benzyl-3H-imidazol-4-yl)-1-carboxy-ethylamino]-hexanoicacid] | –
< 100 | < 100 | < 50 | – | – | – | CC(C)CC(N[C@@H](Cc1cncn1Cc1cccc(F)c1)C(=O)O)C(=O)O (single isomer, unassigned) [JQ, 2-[1-Carboxy-2-[3-(3-fluoro-benzyl)-3H-imidazol-4-yl]-ethylamino]4-methyl-pentanoic acid] | –
< 100 | < 100 | < 50 | – | – | – | CC(C)CC(N[C@@H](Cc1cncn1Cc1cccc(I)c1)C(=O)O)C(=O)O (single isomer, unassigned) [JO, 2-[1-Carboxy-2-[3-(3-iodobenzyl)-3H-imidazol-4-yl]-ethylamino]-4-methyl-pentanoic acid] | –

The remaining lines, values behind:

Structure (SMILES) | Ki (ACE-2 [1]; [3]) [nM] | Ki (ACE-2 [2]; 12 compound concentrations) [nM] | Ki (ACE-2 [1]; [4]) [nM] | Ki (ACE-2 [2]; 12 concentrations) [nM] | Ki (ACE (Sigma, A2580); 12 concentrations) [nM] | Ki (Carboxypeptidase A; 12 concentrations) [nM] | other results
CC(C)CC(N[C@@H](Cc1cncn1Cc1ccc(OC(F)(F)F)cc1)C(=O)O)C(=O)O (single isomer, unassigned) [HS, 2-[1-Carboxy-2-[3-(4-trifluoromethoxy-benzyl)-3H-imidazol-4-yl]-ethylamino]-4-methyl-pentanoic acid] | < 100 | 100 to 500 | 50 to 100 | – | – | – | Ki (ACE (Sigma, A2580); 12 compound concentrations): 10000 to 50000 nM; Ki (Carboxypeptidase A; 12 compound concentrations): 10000 to 50000 nM
CCCC(N[C@H](Cc1c[nH]cn1)C(=O)O)C(=O)O (some centres unmarked) [BC, 2-[1-Carboxy-2-(1H-imidazol-4-yl)-ethylamino]pentanoic-acid] | – | – | – | > 500 | 10000 to 50000 | > 50000 | Ki (ACE-2 [1]; [5]): > 500 nM
CC(C)C[C@H](N[C@H](CC(=O)O)C(=O)O)C(=O)O [U, 2-(1-Carboxy-3-methyl-butylamino)-succinic acid] | – | – | – | > 500 | > 50000 | > 50000 | Ki (ACE-2 [1]; [5]): > 500 nM
CC(C)CC(N[C@@H](Cc1cncn1CCC1CCCCC1)C(=O)O)C(=O)O (single isomer, unassigned) [JI, 2-[1-Carboxy-2-[3-(2-cyclohexyl-ethyl)-3H-imidazol-4-yl]-ethylamino]4-methyl-pentanoic acid] | < 100 | < 100 | < 50 | – | – | – | –
O=C(O)C(Cc1ccccc1)N[C@@H](Cc1cnc[nH]1)C(=O)O (some centres unmarked) [EQ, 2-(1-Carboxy-2-phenyl-ethylamino)-3-(1H-imidazol-4-yl)-propionicacid] | – | – | – | 100 to 500 | > 50000 | 10000 to 50000 | –
CC(C)CC(N[C@@H](Cc1c[nH]cn1)C(=O)O)C(=O)O (single isomer, unassigned) [BL, 2-[1-Carboxy-2-(1H-imidazol-4-yl)-ethylamino]4-methyl-pentanoic acid] | – | – | – | > 500 | 10000 to 50000 | > 50000 | –
CC(C)CC(N[C@@H](Cc1cncn1Cc1ccc2c(c1)OCO2)C(=O)O)C(=O)O (single isomer, unassigned) [JE] | < 100 | < 100 | < 50 | – | – | – | –
O=C(O)C(Cc1ccc(O)cc1)N[C@@H](Cc1c[nH]cn1)C(=O)O (single isomer, unassigned) [DO, 2-[1-Carboxy-2-(4-hydroxy-phenyl)-ethylamino]-3-(1H-imidazol-4-yl)-propionicacid] | – | – | – | 100 to 500 | 10000 to 50000 | > 50000 | –
CC(C)CC(N[C@@H](Cc1cncn1Cc1cccc(Cl)c1Cl)C(=O)O)C(=O)O (single isomer, unassigned) [IX, 2-[1-Carboxy-2-[3-(2,3-dichloro-benzyl)-3H-imidazol-4-yl]-ethylamino]4-methyl-pentanoic acid] | > 500 | < 100 | < 50 | – | – | – | –
CC(C)CC(N[C@@H](Cc1cncn1Cc1cc(Cl)ccc1Cl)C(=O)O)C(=O)O (single isomer, unassigned) [JB, 2-[1-Carboxy-2-[3-(2,5-dichloro-benzyl)-3H-imidazol-4-yl]-ethylamino]4-methyl-pentanoic acid] | < 100 | < 100 | < 50 | – | – | – | –
COC(=O)[C@H](Cc1c[nH]cn1)NC(CC(C)C)C(=O)O (single isomer, unassigned) [CU, 2-[2-(1H-Imidazol-4-yl)-1-methoxycarbonyl-ethylamino]-4-methyl-pentanoic acid] | – | – | – | 100 to 500 | > 50000 | > 50000 | –
CC(C)CC(N[C@@H](Cc1csc(-c2ccccc2)n1)C(=O)O)C(=O)O (some centres unmarked) [IL, 2-[1-Carboxy-2-(2-phenyl-thiazol-4-yl)-ethylamino]-4-methyl-pentanoic acid] | 100 to 500 | < 100 | 50 to 100 | – | – | – | –
CCCCC(N[C@@H](Cc1c[nH]cn1)C(=O)O)C(=O)O (single isomer, unassigned) [EF, 2-[1-Carboxy-2-(1H-imidazol-4-yl)-ethylamino]hexanoic acid] | – | – | – | > 500 | 10000 to 50000 | > 50000 | –
